Values of other authors as cited in publication PMC2686615 (International Immunology, 2009).

Key:
[1] = system: HLA-DQ transgenic mice; conditions: immunization with peptides; cited from earlier work
[2] = system: NOD.DQ8 mice; conditions: oral response to gliadin, 26 peptides tested; cited from earlier work

Sequence | T cell response [1] | T cell response [2]
ENVVVKVYTV [allergen P2 102–110] | elicited T cell responses | –
QSTYQLLQE [gliadin 147–155] | – | negative
VVTVKVMGD [allergen P2 105–113] | failed to stimulate T cell responses | –
